Results taken from ChEMBL document CHEMBL5096196, “Utilizing structure based drug design and metabolic soft spot identification to optimize the in vitro potency and in vivo pharmacokinetic properties leading to the discovery of novel reversible Bruton's tyrosine kinase inhibitors” (Bioorg Med Chem, 2021).

How the values were obtained:
[1] = Apparent permeability of compound across Caco-2/TC-7 monolayers in human Caco-2 cells by LC/MSMS analysis; format: ADME, cell-based
[2] = in vitro; conditions: human, liver microsomes
[3] = in vitro; conditions: rat, liver microsomes
[4] = Metabolic stability in rat liver microsomes; format: ADME, Microsome
[5] = Metabolic stability in human liver microsomes; format: ADME, Microsome
[6] = physchem; conditions: octanol/water

Row | SMILES | remaining at 0.5 h [2] [%] | remaining at 0.5 h [3] [%] | further results
1 | O=C1[C@H](Nc2cc(F)cc(Cl)c2)CCCN1[C@@H]1CCCN(c2ncnc3[nH]ccc23)C1 |  |  | Papp [1]: 28 ×10⁻⁶ cm/s
2 | O=C(O)/C=N/[C@@H]1CCCN(c2ncnc3[nH]ncc23)C1 | 13 | 85 | 
3 | N[C@@H](C(=O)N[C@@H]1CCCN(c2ncnc3[nH]ncc23)C1)C1CC1 |  |  | Stability [4]: 7%; Stability [5]: < 5%
4 | O=C(CO)N[C@@H]1CCCN(c2ncnc3[nH]ncc23)C1 | 19 | 11 | 
5 | O=C(N[C@@H]1CCCN(c2ncnc3[nH]ncc23)C1)[C@H](O)C1CC1 |  |  | Stability [4]: 6%; Stability [5]: < 5%
6 | O=C(N[C@@H]1CCCN(c2ncnc3[nH]ncc23)C1)C(O)Nc1cc(Cl)cc(Cl)c1 (some centres not stated) | 31 | < 5 | 
7 | O=C1[C@H](Nc2cc(F)cc(Cl)c2)CCCN1[C@@H]1CCCN(c2ncnc3[nH]ncc23)C1 |  |  | logD [6]: 4
